A short description of series [1]: IAM chromatography (phospholipophilicity) on IAM.PC.MG. In kind it is physicochemical. The settings on record: 0.1 M phosphate buffer pH 5.0/acetonitrile, extrapolated to 100% aqueous phase. The procedure:
(§1) Phospholipophilicity was experimentally determined using two IAM analytical columns, i.e., IAM.PC.MG (150 × 4.6 mm, 10 μm p.s., pore size: 300 Å) and IAM.PC.DD2 (150 × 4.6 mm, 10 μm p.s., pore size: 300 Å), both from Regis Chemical Company (Morton Grove, IL, USA). The analyses on the IAM.PC.MG were conducted on a LC-20 AD VP (from Shimadzu Corp., Kyoto, Japan), equipped with an ultraviolet (UV)–visible detector (Shimadzu Model SPD10 AV) set at λ = 254 nm. For the determinations on the IAM.PC.DD2, an alliance HPLC system (Waters Corporation, Milford, MA USA) with 2690/2695 separation module, 2996 PDA detector, 717 plus autosampler, and 2487 dual λ absorbance detector, was used at 254 nm wavelength instead. The methods were set, and chromatograms were recorded by Waters Empower® 3 software (Milford, MA USA). On both columns, employed eluents were 0.1 M phosphate buffer at pH 5.0 and acetonitrile at various percentages with a flow rate of 1.0 mL min^−1. All samples were dissolved in acetonitrile (ca. 10^−4 M), and chromatographic analyses were carried out at 22 ± 2 °C. The two different IAM stationary phases differ from each other in the end-capping of residual amino groups of the silica-propylamine core, which support C10 and C3 alkyl chains being end-capped by both decanoic and propionic anhydrides (IAM.PC.DD2), while IAM.PC.MG supports hydroxy groups being end-capped by methyl glycolate. […] Since all the compounds under our investigation required at least the addition of acetonitrile to the mobile phase to elute within 20 min, at least three different mobile phases containing acetonitrile in percentages (φ), ranging from 10% to 30% (v/v), were employed. All kw IAM values average at least three individual measurements, and the final values are reported as decimal logarithms.

The nature of series [2]: IAM chromatography (phospholipophilicity) on IAM.PC.DD2. Conditions: 0.1 M phosphate buffer pH 5.0/acetonitrile, extrapolated to 100% aqueous phase. It is filed as physicochemical. The procedure:
as §1

On the set-up of series [3]: method as in PubCHEM. Conditions: n-octanol–water; ref PubCHEM; cited from earlier work.
For series [4] the following is noted: source not stated, no method described; cited from earlier work.
The next series can be described thus: in vitro. Conditions: male, pig.

Like-named read-outs stand apart in the source and are kept apart here.

With `CCCCOC(=O)c1ccc(O)cc1` [BuP, Butyl 4-hydroxybenzoate], the “logkw IAM.MG” value in series [1] is 1.818. In series [2], the “logkw IAM.DD2” value is 2.812. Also, the “Log P” value in series [3] is 3.57.

As to `O=C(OCc1ccccc1)c1ccc(O)cc1` [BzP, Benzyl 4-hydroxybenzoate], the “logkw IAM.MG” value in series [1] was 2.292. In addition, the “logkw IAM.DD2” value in series [2] is listed as 2.735. Also, in series [4], the “S (Solubility in water)” value was 92 µg/mL. The “Log P” value in series [3] is recorded as 3.56.

Turning to `CCOC(=O)c1ccc(O)cc1` [EP, Ethyl 4-hydroxybenzoate], the “logkw IAM.MG” value in series [1] was 0.956. This compound had a Papp at 24 h in the series “in vitro” of 0.261 ×10⁻⁶ cm/s. The “Log Kp * (determined in the present study)” value (experimental, Franz cell, porcine ear skin) was −6.58 cm/s. Moreover, under “from the beginning of the experiment”, the “time to maximum passage through the porcine skin” value was at most 120 min. Besides, the “Maximum Flux” value (porcine ear skin, saturated solution in PBS pH 5.0 as donor, receptor PBS pH 7.4, 37 °C, ± standard deviation) is listed as 2.35 ± 0.71 µg/cm^2/h. For the setting “porcine ear skin, median, 95% interval confidence in parentheses”, the “Permeation (%) (Median)” value is 0.110 (0–0.11) %. Further, the “logkw IAM.DD2” value in series [2] is listed as 1.751. The “S (Solubility in water)” value in series [4] was 885 µg/mL. Further, the “Log P” value in series [3] is 2.47.

As for `COC(=O)c1ccc(O)cc1` [MP, Methyl 4-hydroxybenzoate], in series [1], the “logkw IAM.MG” value was 0.615. Further, the “logkw IAM.DD2” value in series [2] is reported as 1.306.

On to `CCCOC(=O)c1ccc(O)cc1` [PrP, Propyl 4-hydroxybenzoate], for which the “logkw IAM.MG” value in series [1] is 1.339. Further, for the setting “at any time (½–24 h), fully aqueous donor pH 5.0”, the “detection in receptor fluids” value is on record as “not detected”. In addition, the “logkw IAM.DD2” value in series [2] is 2.267.

`CC(C)COC(=O)c1ccc(O)cc1` [iBuP, Isobutyl 4-hydroxybenzoate]: the “logkw IAM.MG” value in series [1] is recorded as 1.708. Moreover, the “logkw IAM.DD2” value in series [2] is 2.448. Besides, in series [4], the “S (Solubility in water)” value was 207 µg/mL. Besides, the “Log P” value in series [3] is 3.57.

`CC(C)OC(=O)c1ccc(O)cc1` [iPrP, Isopropyl 4-hydroxybenzoate]: the “logkw IAM.MG” value in series [1] is 1.227. For the same compound, the “logkw IAM.DD2” value in series [2] is 1.914. In addition, in series [4], the “S (Solubility in water)” value was 500 µg/mL.

Consider `O=C(O)c1ccc(O)cc1` [pHBA, 4-Hydroxybenzoic acid], for which the “logkw IAM.MG” value in series [1] is listed as below 1. In addition, the “logkw IAM.MG” value in series [1] (listed as pHB) is listed as −0.955. In the series “in vitro”, this compound gave a Papp at 24 h of 3.33 ×10⁻⁶ cm/s. For the same compound, under “male, pig”, the “Maximum Flux” value was 12.68 ± 4.08 µg/cm^2/h, the “Permeation (%) (Median)” value was 0.997 (0–1.22) % and the “time to maximum passage through the porcine skin” value is at most 30 min. The “Log Kp * (determined in the present study)” value (pig) is recorded as −5.48 cm/s. For the same compound, in series [2], the “logkw IAM.DD2” value is listed as below 1. The “logkw IAM.DD2” value in series [2] (listed as pHB) is given as −1.054.

The term Log P denotes the decadic logarithm of the partition coefficient of the neutral form, usually between octanol and water. Usually Papp stands for a coefficient for how fast a substance crosses the barrier.
